Like-named read-outs stand apart in the source and are kept apart here.
Key:
[1] = tested on: phosphorylation of Akt at Serine 473 in U87 MG cells; conditions: read-out: U87Cell IC50
PI3Kα [2] = target: T1, PI3Kα (Homo sapiens (Human), UniProt P42336); conditions: read-out: PI3Kα AlphaScreen ® Ki
[3] = tested on: phosphorylation of Akt at Serine 473 in U87 MG cells; assay: cells; conditions: Homo sapiens, U-87 MG, 2 h, read-out: U87Cell IC50, pAkt (Ser 473), U87 MG cells, two hours with compound
PI3Kα [4] = target: T1, PI3Kα; assay: biochemical; conditions: PI3Kα AlphaScreen ® Ki

T1 sequence (P42336 whole entry): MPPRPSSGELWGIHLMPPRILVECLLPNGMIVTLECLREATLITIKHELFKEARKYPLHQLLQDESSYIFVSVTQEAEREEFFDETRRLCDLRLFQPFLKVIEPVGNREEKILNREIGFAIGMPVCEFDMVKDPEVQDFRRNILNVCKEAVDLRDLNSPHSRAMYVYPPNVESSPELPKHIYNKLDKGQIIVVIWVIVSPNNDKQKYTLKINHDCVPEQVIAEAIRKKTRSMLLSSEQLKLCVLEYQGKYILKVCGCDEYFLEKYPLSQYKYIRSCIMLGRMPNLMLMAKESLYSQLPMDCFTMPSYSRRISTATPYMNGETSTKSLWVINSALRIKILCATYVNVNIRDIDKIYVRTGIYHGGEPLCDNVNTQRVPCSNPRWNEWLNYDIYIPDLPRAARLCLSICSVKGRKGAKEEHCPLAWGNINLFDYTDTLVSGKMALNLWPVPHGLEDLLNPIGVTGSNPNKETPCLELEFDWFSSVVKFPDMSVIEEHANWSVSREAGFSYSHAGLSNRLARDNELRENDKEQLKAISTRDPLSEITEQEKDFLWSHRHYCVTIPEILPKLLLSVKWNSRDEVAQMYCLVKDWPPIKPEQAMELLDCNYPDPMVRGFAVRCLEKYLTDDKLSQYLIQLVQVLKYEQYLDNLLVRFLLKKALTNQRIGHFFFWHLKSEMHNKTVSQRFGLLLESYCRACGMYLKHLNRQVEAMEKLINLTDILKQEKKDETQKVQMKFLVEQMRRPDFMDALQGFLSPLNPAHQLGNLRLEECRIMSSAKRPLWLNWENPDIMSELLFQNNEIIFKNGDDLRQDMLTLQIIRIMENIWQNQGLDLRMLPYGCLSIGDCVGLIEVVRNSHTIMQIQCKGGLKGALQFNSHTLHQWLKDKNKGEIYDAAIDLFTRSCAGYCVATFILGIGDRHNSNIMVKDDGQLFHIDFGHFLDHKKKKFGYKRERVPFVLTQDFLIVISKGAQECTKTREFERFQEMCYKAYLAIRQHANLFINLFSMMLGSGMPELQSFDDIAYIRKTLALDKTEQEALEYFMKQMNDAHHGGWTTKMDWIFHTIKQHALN
T1 sequence (P27986 whole entry partner): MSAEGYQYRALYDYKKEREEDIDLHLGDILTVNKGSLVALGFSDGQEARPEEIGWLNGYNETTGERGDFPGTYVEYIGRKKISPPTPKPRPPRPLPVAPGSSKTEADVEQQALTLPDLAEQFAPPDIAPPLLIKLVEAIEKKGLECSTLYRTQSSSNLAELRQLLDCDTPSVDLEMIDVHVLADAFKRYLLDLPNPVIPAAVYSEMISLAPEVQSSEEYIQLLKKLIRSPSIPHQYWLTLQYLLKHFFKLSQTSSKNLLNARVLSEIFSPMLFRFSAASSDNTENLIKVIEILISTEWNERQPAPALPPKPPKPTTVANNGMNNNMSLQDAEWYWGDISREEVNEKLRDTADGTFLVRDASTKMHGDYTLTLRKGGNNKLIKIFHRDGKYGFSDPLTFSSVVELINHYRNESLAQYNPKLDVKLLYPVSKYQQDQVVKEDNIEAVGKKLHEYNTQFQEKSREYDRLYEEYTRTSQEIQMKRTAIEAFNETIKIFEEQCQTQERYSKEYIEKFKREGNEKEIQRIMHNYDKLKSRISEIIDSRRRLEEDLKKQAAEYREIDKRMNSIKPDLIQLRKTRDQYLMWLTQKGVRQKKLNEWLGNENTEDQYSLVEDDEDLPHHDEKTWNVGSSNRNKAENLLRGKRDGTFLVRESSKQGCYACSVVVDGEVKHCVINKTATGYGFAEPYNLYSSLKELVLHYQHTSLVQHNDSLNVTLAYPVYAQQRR

## 4-((5-(4-Amino-6-Methyl-1,3,5-Triazin-2-yl)-6-(5-Fluoro-6-Methoxypyridin-3-Ylaamino)Pyridin-3-yl)Methyl)-N-Methyl-N-(2,2,2-Trifluoroethyl)Piperazine-1-Carboxamide [Example 358]
[1]
  IC50: 121 nM
PI3Kα [2]
  Ki: 24 nM

## COc1ccc(Nc2ncc([C@@H](O)C(F)(F)F)cc2-c2nc(C)nc(N)n2)cn1.COc1ccc(Nc2ncc([C@H](O)C(F)(F)F)cc2-c2nc(C)nc(N)n2)cn1 (racemic) [Example 269, (R,S)-1-(5-(4-Amino-6-Methyl-1,3,5-Triazin-2-yl)-6-(6-Methoxypyridin-3-Ylamino)Pyridin-3-yl)-2,2,2-Trifluoroethanol]
[1]; pAkt (Ser 473), U87 MG cells, two hours with compound
  IC50: 89 nM
PI3Kα [2]
  Ki: 33 nM

## COc1ccc(Nc2ncc([C@H](O)C(C)(C)C)cc2-c2nc(C)nc3c2ncn3C2CCCCO2)cn1 (stereo partly drawn) [Example 133, (1R)-1-(6-(6-Methoxypyridin-3-Ylamino)-5-(2-Methyl-9-(Tetrahydro-2H-Pyran-2-yl)-9H-Purin-6-yl)Pyridin-3-yl)-2,2-Dimethylpropan-1-ol]
[3]
  IC50: 278 nM
PI3Kα [4]
  Ki: 31 nM

## COc1ccc(Nc2ncc(CN3CCN(C(=O)N(C)C4CC4)CC3)cc2-c2nc(C)nc(N)n2)cn1 [Example 359, 4-((5-(4-Amino-6-Methyl-1,3,5-Triazin-2-yl)-6-(6-Methoxypyridin-3-Ylamino)Pyridin-3-yl)Methyl)-N-Cyclopropyl-N-Methylpiperazine-1-Carboxamide]
[3]
  IC50: 90 nM
PI3Kα [4]
  Ki: 45 nM
